Measured values as given in PubChem BioAssay AID248 (DTP/NCI, 2004).
“And” between values parts separate entries of the source, which are not always exact repeats. Equal entries are not always repeated. Toxic doses and inconclusive results are not listed. Rule as the data show it: active = T/C of 150% or more; inactive = T/C below 125%.

Test system: L1210 leukemia ip in BDF1 mice, survival T/C
Assay: NCI In Vivo Anticancer Drug Screen. Data for tumor model L1210 Leukemia (intraperitoneal) in B6D2F1 (BDF1) mice
Details: endpoint: mean survival time, higher = longer survival
Method in brief: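 Tumor cells were implanted, animals were treated, and survival was followed. The result divides the treated measurement by the vehicle-control measurement.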

[1] = dose: 100.0 mg/kg/injection, schedule: Q04DX003 (ip), vehicle: saline
[2] = dose: 200.0 mg/kg/injection, schedule: Q04DX003 (ip), vehicle: saline
[3] = dose: 400.0 mg/kg/injection, schedule: Q04DX003 (ip), vehicle: saline

Measured: T/C

CCN(CC)CC(=O)NCC(CCCCN1CCCCC1)(c1cccc2ccccc12)C(C)C (stereo not given)
inactive: dose: 12.5 mg/kg/injection, schedule: Q04DX003 (ip), vehicle: saline 104 % of control | dose: 25.0 mg/kg/injection, schedule: Q04DX003 (ip), vehicle: saline 102 % of control | dose: 50.0 mg/kg/injection, schedule: Q04DX003 (ip), vehicle: saline 102 % of control

O=S(=O)(CCCCCl)Cc1ccccc1
inactive: dose: 100.0 mg/kg/injection, schedule: Q01DX001 (ip), vehicle: saline 101 % of control | dose: 100.0 mg/kg/injection, schedule: Q01DX009 (ip), vehicle: saline 110 % of control | [1] 104 % of control | dose: 200.0 mg/kg/injection, schedule: Q01DX001 (ip), vehicle: saline 96 % of control | dose: 200.0 mg/kg/injection, schedule: Q01DX009 (ip), vehicle: saline 94 % of control | [2] 104 % of control | dose: 400.0 mg/kg/injection, schedule: Q01DX001 (ip), vehicle: saline 93 % of control | dose: 400.0 mg/kg/injection, schedule: Q01DX009 (ip), vehicle: saline 103 % of control | [3] 93 % of control

Nc1cc(SC(c2ccccc2)c2ccccc2)c([N+](=O)[O-])c(N)n1
inactive: dose: 100.0 mg/kg/injection, schedule: Q01DX001 (ip), vehicle: saline with Tween-80 92 % of control | dose: 200.0 mg/kg/injection, schedule: Q01DX001 (ip), vehicle: saline with Tween-80 101 % of control | dose: 400.0 mg/kg/injection, schedule: Q01DX001 (ip), vehicle: saline with Tween-80 95 % of control

NC(=S)N/N=C/c1ccc(Br)cn1
inactive: dose: 6.25 mg/kg/injection, schedule: Q01DX009 (ip), vehicle: saline with Tween-80 117 % of control | dose: 12.5 mg/kg/injection, schedule: Q01DX009 (ip), vehicle: saline with Tween-80 113 % of control

CC1([N+](=O)[O-])COP(=O)(NC2CC2)OC1 (stereo not given)
inactive: dose: 50.0 mg/kg/injection, schedule: Q01DX001 (ip), vehicle: carboxymethylcellulose (CMC) 97 % of control | dose: 100.0 mg/kg/injection, schedule: Q01DX001 (ip), vehicle: carboxymethylcellulose (CMC) 97 % of control | dose: 200.0 mg/kg/injection, schedule: Q01DX001 (ip), vehicle: carboxymethylcellulose (CMC) 103 % of control | dose: 400.0 mg/kg/injection, schedule: Q01DX001 (ip), vehicle: carboxymethylcellulose (CMC) 97 % of control

Nc1cccnc1Cl
inactive: dose: 100.0 mg/kg/injection, schedule: Q01DX009 (ip), vehicle: alcohol 100 % of control | dose: 100.0 mg/kg/injection, schedule: Q04DX003 (ip), vehicle: other 92 % of control | dose: 200.0 mg/kg/injection, schedule: Q01DX009 (ip), vehicle: alcohol 96 % of control | dose: 200.0 mg/kg/injection, schedule: Q04DX003 (ip), vehicle: other 90 % of control | dose: 400.0 mg/kg/injection, schedule: Q01DX009 (ip), vehicle: alcohol 96 % of control | dose: 400.0 mg/kg/injection, schedule: Q04DX003 (ip), vehicle: other 93 % of control

CCCCCCC(OC(C)=O)OC(C)=O
inactive: dose: 222.0 mg/kg/injection, schedule: Q01DX Z (ip), vehicle: saline 101 % of control | dose: 333.0 mg/kg/injection, schedule: Q01DX Z (ip), vehicle: saline 103 % of control | dose: 500.0 mg/kg/injection, schedule: Q01DX Z (ip), vehicle: saline 104 % of control

CCC(CO)NC(=O)C1C=C2c3cccc4c3c(cn4C)CC2N(C)C1 (stereo not given)
inactive: dose: 25.0 mg/kg/injection, schedule: Q01DX009 (ip), vehicle: Klucel (hydroxypropylcellulose) (HPC) 94 % of control and 101 % of control | dose: 25.0 mg/kg/injection, schedule: Q04DX003 (ip), vehicle: Klucel (hydroxypropylcellulose) (HPC) 97 % of control | dose: 50.0 mg/kg/injection, schedule: Q01DX009 (ip), vehicle: Klucel (hydroxypropylcellulose) (HPC) 94 % of control and 101 % of control | dose: 50.0 mg/kg/injection, schedule: Q04DX003 (ip), vehicle: Klucel (hydroxypropylcellulose) (HPC) 103 % of control | dose: 100.0 mg/kg/injection, schedule: Q01DX009 (ip), vehicle: Klucel (hydroxypropylcellulose) (HPC) 111 % of control and 91 % of control | dose: 100.0 mg/kg/injection, schedule: Q04DX003 (ip), vehicle: Klucel (hydroxypropylcellulose) (HPC) 108 % of control | dose: 200.0 mg/kg/injection, schedule: Q01DX009 (ip), vehicle: Klucel (hydroxypropylcellulose) (HPC) 120 % of control and 121 % of control | dose: 200.0 mg/kg/injection, schedule: Q04DX003 (ip), vehicle: Klucel (hydroxypropylcellulose) (HPC) 109 % of control | dose: 400.0 mg/kg/injection, schedule: Q01DX009 (ip), vehicle: Klucel (hydroxypropylcellulose) (HPC) 120 % of control | dose: 400.0 mg/kg/injection, schedule: Q04DX003 (ip), vehicle: Klucel (hydroxypropylcellulose) (HPC) 104 % of control

CC(C)/C(=N\[N+](C)(C)C)c1ccccc1
inactive: dose: 18.8 mg/kg/injection, schedule: Q04DX003 (ip), vehicle: saline 97 % of control | dose: 37.5 mg/kg/injection, schedule: Q04DX003 (ip), vehicle: saline 100 % of control | dose: 75.0 mg/kg/injection, schedule: Q01DX001 (ip), vehicle: saline 103 % of control | dose: 75.0 mg/kg/injection, schedule: Q04DX003 (ip), vehicle: saline 100 % of control

O=c1oc2ccccc2c(=S)n1-c1ccccc1
inactive: [1] 105 % of control | [2] 94 % of control | [3] 91 % of control

O=C(O)c1ccccc1-c1ccccc1C(=O)O
inactive: dose: 100.0 mg/kg/injection, schedule: Q04DX003 (ip), vehicle: saline with Tween-80 111 % of control | dose: 200.0 mg/kg/injection, schedule: Q04DX003 (ip), vehicle: saline with Tween-80 97 % of control | dose: 400.0 mg/kg/injection, schedule: Q04DX003 (ip), vehicle: saline with Tween-80 94 % of control
